Assay results from patent publication US9856256B2, “Pyridino[1,2-A]pyrimidone analogue used as P13K inhibitor” (CHIA TAI TIANQING PHARMACEUTICAL GROUP CO., LTD., priority 2014, dated 2018).

Experiments:
[1] = target: T1, mTOR (Homo sapiens, UniProt P42345); assay: In vitro enzyme activity assay, mTOR kinase (32P-ATP, P81 filter-binding); format: biochemical; conditions: 4EBPI substrate, 10 μM ATP; read-out: mTOR enzyme activity_IC50
T1 construct: recombinant human mTOR fragment (amino acid 1360-2549, molecular weight=163.9 kDa); GST-tag (N); host or cells: insect cells
T1 sequence (P42345 1360-2549): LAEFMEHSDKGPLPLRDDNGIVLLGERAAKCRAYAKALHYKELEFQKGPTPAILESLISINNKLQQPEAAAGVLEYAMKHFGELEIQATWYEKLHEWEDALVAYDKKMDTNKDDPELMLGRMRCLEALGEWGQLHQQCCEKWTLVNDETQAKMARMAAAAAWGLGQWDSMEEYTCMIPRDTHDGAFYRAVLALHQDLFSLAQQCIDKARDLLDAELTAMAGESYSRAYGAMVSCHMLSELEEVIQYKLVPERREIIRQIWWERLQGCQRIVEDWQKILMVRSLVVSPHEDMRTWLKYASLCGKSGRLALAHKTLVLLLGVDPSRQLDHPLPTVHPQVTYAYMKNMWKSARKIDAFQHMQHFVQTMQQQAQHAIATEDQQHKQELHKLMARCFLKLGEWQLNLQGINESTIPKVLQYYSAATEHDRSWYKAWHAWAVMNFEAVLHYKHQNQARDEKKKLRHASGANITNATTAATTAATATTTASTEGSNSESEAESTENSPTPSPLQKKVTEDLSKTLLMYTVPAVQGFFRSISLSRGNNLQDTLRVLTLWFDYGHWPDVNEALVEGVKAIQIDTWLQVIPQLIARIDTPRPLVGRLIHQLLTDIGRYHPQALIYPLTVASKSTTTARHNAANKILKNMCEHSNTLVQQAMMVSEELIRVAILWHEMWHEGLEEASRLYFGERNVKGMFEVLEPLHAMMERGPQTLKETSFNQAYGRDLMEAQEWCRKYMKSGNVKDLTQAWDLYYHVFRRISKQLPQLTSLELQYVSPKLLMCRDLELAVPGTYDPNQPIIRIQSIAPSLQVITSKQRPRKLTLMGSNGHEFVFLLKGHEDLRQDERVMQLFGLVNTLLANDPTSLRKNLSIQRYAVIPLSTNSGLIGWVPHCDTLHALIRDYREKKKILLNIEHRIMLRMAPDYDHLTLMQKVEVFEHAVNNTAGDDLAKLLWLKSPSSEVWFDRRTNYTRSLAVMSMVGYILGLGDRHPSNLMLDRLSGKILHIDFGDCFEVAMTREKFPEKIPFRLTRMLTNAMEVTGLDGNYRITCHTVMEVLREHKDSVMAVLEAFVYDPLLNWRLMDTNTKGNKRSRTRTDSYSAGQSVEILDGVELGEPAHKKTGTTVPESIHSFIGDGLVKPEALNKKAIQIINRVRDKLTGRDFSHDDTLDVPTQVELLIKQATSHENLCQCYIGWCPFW
Protocol: mTOR kinase activities of the compounds in all the examples of the present invention were tested via the following method.
Reaction buffer: 20 mM Hepes (pH 7.5), 10 mM MgCl2, 2 mM MnCl2, 1 mM EGTA, 0.02% Brij35, 0.02 mg/mL BSA, 0.1 mM Na3VO4, 2 mM DTT, and 2% DMSO.
Enzyme for reaction: recombinant human mTOR fragment (amino acid 1360-2549, molecular weight=163.9 kDa) with a GST-tag at the N-terminus, which was expressed in insect cells.
Substrate for reaction: recombinant full-length human 4EBPI (molecular weight=13.6 kDa) with a His-tag at the N-terminus, which was expressed in bacteria.
Reaction conditions: […] 4EBPI and 10 μM ATP.
1. adding the reaction substrate and other reaction factors into the freshly prepared reaction buffer;
(§1) 2. adding the kinase into the substrate reaction solution, and mixing gently;
3. transferring the compound dissolved in 100% DMSO into the kinase reaction solution by using Acoustic technique (Echo550; nanoliter rang), and incubating at room temperature for 20 minutes;
4. adding an appropriate concentration of ^32P-ATP into the reaction system;
5. incubating at room temperature for 2 hours;
6. detecting the kinase activity by using P81 filter-binding method.

[2] = test system: MCF-7 cells; assay: In vitro cell activity assay (MCF-7, insulin stimulation, ELISA-One); format: cell-based; conditions: Homo sapiens, MCF7, compound 2 hours in serum-free media, then 10 μg/ml insulin 30 min
Protocol: Experimental Steps and Method Comprise:
1. MCF-7 cells were seeded at 2,5000 cells per well in a 96 well tissue culture plate in a complete media containing 10%0/FBS.
3. The cells were treated with 10 μg/ml insulin in serum-free media for 30 min.
4. During waiting period, lysis solution was prepared as below:
a) Enhancer Solution needs to be taken out from the refrigerator to be thawed.
b) Concentrated lysis solution was prepared by diluting Enhancer Solution 10-fold in 5× Lysis Buffer.
c) Lysis solution was prepared by diluting concentrated lysis solution 5-fold with ddH2O.
5. Any media were removed from wells and the wells were rinsed with PBS once quickly.
6. 50 μL of freshly prepared lysis solution were added into each well, with shaking at room temperature for 10 min.
7. After confirming that all cells get detached from wells, the lysis solution together with the cell debris was transferred to 1.5 ml tubes.
8. The tubes were vortexed several times to thoroughly mix the lysis solution and cells, and then, and then the mixture was centrifuged at 12,000 g for 10 min at 4° C.;
9. The desired number of ELISA-One microplate strips was determined. Unused strips were removed from frame and returned to storage pouch and seal. Wells for use in the assay were rinsed with 200 μL ddH2O to remove preservatives prior to use.
10. 50 μL of antibody mixture solution was added into each well. (Antibody mixture solution was prepared by mixing capture antibody reagent and detection antibody reagent equally, avoid vortexing)
11. 25 μL of lysate was added into each well of the ELISA-One microplate. The microplate was covered with adhesive seal and incubated for 1 hour at room temperature on a microplate shaker.
12. Each well was washed with 150 μL 1× wash buffer 3 times. After final wash, any remaining wash buffer was removed from wells. If necessary, leave microplate in 1× Wash Buffer for up to 30 min, until substrate mixture solution has been prepared.
13. The substrate mixture solution should be prepared when used, 100 μL of substrate mixture solution was added into each well, and then the microplate was sealed with tin foil and incubated at room temperature for 10 minutes on a microplate shaker.
14. 10 μL of stop solution was added into each well, and then mixed slightly (5-10 seconds) on a microplate shaker.
15. Corresponding ELISA-One filter set was installed to read the fluorescence signal intensity.

[3] = target: PI3K (p110α) (Homo sapiens, UniProt P42336); assay: In vitro enzyme activity assay, PI3K (p110α) kinase, Method I (HTRF); format: biochemical; set-up: recombinant full-length human PI3K p110α subunit; His-tag (N); host or cells: insect cells; conditions: 10 μM PI(4,5)P2 and 10 μM ATP), read-out: PI3K (p110α) enzyme activity_IC50
Sequence of PI3K (p110α) (P42336 whole entry): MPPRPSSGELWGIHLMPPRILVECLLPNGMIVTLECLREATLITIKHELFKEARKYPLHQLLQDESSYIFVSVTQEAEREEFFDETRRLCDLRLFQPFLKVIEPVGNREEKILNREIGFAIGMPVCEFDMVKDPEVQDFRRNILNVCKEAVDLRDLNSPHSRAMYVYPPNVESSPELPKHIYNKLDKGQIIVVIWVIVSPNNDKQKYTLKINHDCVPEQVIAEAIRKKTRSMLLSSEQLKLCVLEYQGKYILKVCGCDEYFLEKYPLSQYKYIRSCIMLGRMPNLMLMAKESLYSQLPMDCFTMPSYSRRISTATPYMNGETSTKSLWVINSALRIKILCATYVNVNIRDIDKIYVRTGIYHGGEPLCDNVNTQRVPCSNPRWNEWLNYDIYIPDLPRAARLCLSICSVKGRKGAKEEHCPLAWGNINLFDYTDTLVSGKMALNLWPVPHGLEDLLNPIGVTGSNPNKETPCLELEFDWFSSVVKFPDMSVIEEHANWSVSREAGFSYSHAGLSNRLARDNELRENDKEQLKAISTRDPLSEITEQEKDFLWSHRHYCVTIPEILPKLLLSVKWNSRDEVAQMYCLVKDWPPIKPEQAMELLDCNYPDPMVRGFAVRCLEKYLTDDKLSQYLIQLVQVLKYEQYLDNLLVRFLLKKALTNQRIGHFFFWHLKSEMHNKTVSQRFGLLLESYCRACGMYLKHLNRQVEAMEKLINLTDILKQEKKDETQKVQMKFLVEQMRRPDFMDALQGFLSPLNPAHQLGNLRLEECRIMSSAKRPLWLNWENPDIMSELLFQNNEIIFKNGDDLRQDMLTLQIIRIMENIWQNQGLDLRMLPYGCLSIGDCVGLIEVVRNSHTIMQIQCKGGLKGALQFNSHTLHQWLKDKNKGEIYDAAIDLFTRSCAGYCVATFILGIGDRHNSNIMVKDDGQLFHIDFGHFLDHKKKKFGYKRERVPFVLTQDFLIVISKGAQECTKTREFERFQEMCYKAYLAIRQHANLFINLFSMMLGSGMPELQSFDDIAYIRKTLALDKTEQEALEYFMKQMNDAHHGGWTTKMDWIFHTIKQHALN
Sequence of PI3K (p110α) (P27986 whole entry partner): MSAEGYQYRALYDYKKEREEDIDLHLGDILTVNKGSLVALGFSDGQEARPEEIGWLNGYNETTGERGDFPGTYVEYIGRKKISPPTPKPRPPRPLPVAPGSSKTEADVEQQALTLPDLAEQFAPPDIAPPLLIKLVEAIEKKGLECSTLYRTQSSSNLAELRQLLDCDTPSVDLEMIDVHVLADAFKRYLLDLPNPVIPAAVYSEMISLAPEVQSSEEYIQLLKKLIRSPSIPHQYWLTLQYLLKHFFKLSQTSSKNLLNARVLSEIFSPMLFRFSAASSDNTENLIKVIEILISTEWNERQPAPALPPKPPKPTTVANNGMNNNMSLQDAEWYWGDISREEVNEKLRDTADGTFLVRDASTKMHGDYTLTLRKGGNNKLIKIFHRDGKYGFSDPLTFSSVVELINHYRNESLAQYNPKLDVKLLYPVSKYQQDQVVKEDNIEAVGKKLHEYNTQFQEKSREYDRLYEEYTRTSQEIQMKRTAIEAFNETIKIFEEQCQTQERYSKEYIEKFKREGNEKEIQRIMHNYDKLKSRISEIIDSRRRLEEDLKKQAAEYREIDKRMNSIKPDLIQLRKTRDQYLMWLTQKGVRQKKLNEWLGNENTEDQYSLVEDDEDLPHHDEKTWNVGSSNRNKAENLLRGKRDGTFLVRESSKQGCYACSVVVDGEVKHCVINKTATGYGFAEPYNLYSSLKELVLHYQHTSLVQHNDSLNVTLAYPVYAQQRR
Protocol: PI3K (p110α) kinase activities of the compounds in all the examples of the present invention were tested via the following two methods, respectively.
Reaction buffer: HEPES 50 mM (pH7.0), NaN3 0.02%, BSA 0.01%. Orthovanadate 0.1 mM, and 1% DMSO.
Detection buffer: HEPES 10 mM (pH7.0), BSA 0.02%, KF 0.16 M, and EDTA 4 mM.
Enzymes for reaction: recombinant full-length human PI3K p110α subunit (molecular weight=128.4 kDa) with a His-tag at the N-terminus and unlabeled p85α subunit (molecular weight=83.6 kDa), which were expressed in insect cells.
Substrate for reaction: […] PIP2 substrate (PI(4,5)P2).
Reaction conditions: 10 μM PI(4,5)P2 and 10 μM ATP.
1. preparing the substrate in the freshly prepared reaction buffer;
as §1
3. transferring the compound dissolved in 100% DMSO into the kinase reaction solution by using Acoustic technique (Echo550; nanoliter rang), and incubating at room temperature for 10 minutes;
4. adding an appropriate concentration of ATP into the reaction system,
5. incubating at 30° C. for half an hour;
6. terminating the reaction by adding a stop solution;
7. adding the detection buffer and incubating overnight; and
8. detecting by using homogeneous time-resolved fluorescence (HTRF) method (excitation wavelength of 320 nm, measuring the ratio of the emission wavelength readings at 615 nm and 665 nm).

IC50 [1] [nM] | IC50 [2] [nM] | IC50 [3] [nM] | Structure (SMILES)
50 to 200 | ≤ 50 | ≤ 1 | COc1ncc(-c2ccc3ncc(OCCN4CCOCC4)c(=O)n3c2)cc1NS(=O)(=O)c1sc(C)nc1C [Compound 15]
50 to 200 | 100 to 250 | ≤ 1 | COc1ncc(-c2ccc3ncc(OCCN4CCOCC4)c(=O)n3c2)cc1NS(=O)(=O)c1sc(N)nc1C [Compound 16]
50 to 200 | ≤ 50 | ≤ 1 | COc1ncc(-c2ccc3ncc(OCCN(C)C)c(=O)n3c2)cc1NS(=O)(=O)c1sc(C)nc1C [Compound 35]
> 200 | ≤ 50 | ≤ 1 | COc1ncc(-c2ccc3ncc(OCCN(C)C)c(=O)n3c2)cc1NS(=O)(=O)c1sccc1C [Compound 36]
50 to 200 | 100 to 250 | ≤ 1 | COc1ncc(-c2ccc3ncc(OCCn4cccn4)c(=O)n3c2)cc1NS(=O)(=O)c1ccc(F)cc1F [Compound 37, 2,4-Difluoro-N-(2-methoxy-5-(4-oxo-3-(2-pyrazol-1-yl-ethoxy)pyrido[1,2-a]pyrimidin-7-yl)pyridin-3-yl)benzenesulfonamide]
> 200 | 100 to 250 | ≤ 1 | COc1ncc(-c2ccc3ncc(OCCN4CCCC4)c(=O)n3c2)cc1NS(=O)(=O)c1ccc(F)cc1F [Compound 42]
> 200 | 50 to 100 | ≤ 1 | COc1ncc(-c2ccc3ncc(OCCN(C)C)c(=O)n3c2)cc1NS(=O)(=O)c1ccc(F)cc1F [Compound 43]
